According to patent publication US8673347B2 (Creabilis Therapeutics S.p.A., priority 2005, dated 2014):
Read-outs that look alike come from different tables or passages of the source.

Legend:
[1] = Dermal absorption study in mice of K-252a versus K-252a-PEG; assay type: in vivo; conditions: male, Balb/C, mouse, plasma, topical, 3 mg/kg dermal
Description: The experiment was performed using a dose of active agent in both preparation of 3 mg/kg. For the present study, three subsequent experiments have been performed in vivo using each time 6 Balb/C male mice purchased from Charles River (Calco, Italy). The mice were subdivided in the following experimental groups (two animals per group): • Group 1: The mice were treated with 3 mg/kg of K-252-a, by dermal administration and sacrificed after 30 minutes. • Group 2: The mice were treated with 3 mg/kg of K-252-a by dermal administration and sacrificed after 60 minutes. • Group 3: The mice were treated with 3 mg/kg of K-252-a-PEG(2K) of Example 1 by dermal administration and sacrificed after 60 minutes.
The oil-based preparations are in form of emulsions which are rendered homogeneous by repeated sonication. […] The applied emulsion was gently massaged on the back of the mice to favor the absorption. The mice were then sacrificed respectively after 30 or 60 minutes under ether anaesthesia and the blood was collected from the ventral aorta with the insulin syringe (approx. 1 mL/animal). […] The blood samples were then centrifugated at 2000 g for 5 minutes in a refrigerated (4° C.) centrifuge, purified by solid phase extraction (SPE) and subsequently analyzed through HPLC quantitative analysis (RT-HPLC analysis with)(Terra C18 column, eluent water/ACN). […]

[2] = PK study in mice, repeated dermal administration; assay type: in vivo; conditions: repeated dermal QD for 5 days, 1.03 mg/kg (about 2 μmol/kg), t = 3 h after last administration
Description: At each sampling time, approximately 0.4 mL blood samples were collected from the ventral aorta of each animal using an insulin syringe, under deep ether anesthesia, and transferred into polyethylene Eppendorf tubes containing 50 μL of 5% EDTA water solution to prevent blood clotting. Blood samples were kept in ice until centrifugation at 1400 g for 5 min. in a refrigerated centrifuge (2-4° C.). From each tube plasma samples were then recovered, put in new Eppendorf tubes and frozen at −20° C. which until the HPLC analysis.

[3] = Acute single dose toxicity study in mice, intraperitoneal route; assay type: in vivo; conditions: for LD50 at 7 days: Balb/c, mouse, in vivo, ip, single dose intraperitoneal
Description: (§1) Observations, which included clinical signs and behavioral changes, were performed every 30 minutes in the first 6 hour following administration, and twice a day during the following 7 days.

[4] = Acute single dose toxicity study in mice, oral administration; conditions: both sexes, Balb/c, mouse, in vivo
Description: as §1
Similar results have been obtained following oral administration.

[5] = test system: LPS-induced endotoxemia; experiment: Plasma cytokines in mice after LPS-induced endotoxemia; assay type: in vivo; conditions: parallel experiment, treated before LPS; versus vehicle
Description: A study was performed with the purpose to quantitatively determine a panel of 24 cytokines in the plasma of mice at different time points after LPS-induced endotoxemia and to compare the profiles obtained with those of CT327 pre-treated endotoxemic mice.
The animals were divided into two experimental groups (55 mice/group) that were treated following this schedule:
At time 0 both groups received a dose of LPS corresponding to 4 mg/kg, i.p.
The “treated” experimental group received a single dose of CT327 corresponding to 105.56 mg/kg, i.p. This dose was administered 15 minutes before LPS endotoxemia induction (time 0). At the same time the “control” group received an equivalent volume of vehicle solution.
Each experimental group was divided into 11 sub-groups with 5 mice/sub-group. Each sub-group was sacrificed at different time points and blood samples collected.
Time points for blood sample collection were: • Time: time 0 (basal); before LPS treatment • Time: +30 minutes; after LPS treatment • Time: +1 hours; after LPS treatment • Time: +2 hours; after LPS treatment • Time: +3 hours; after LPS treatment • Time: +6 hours; after LPS treatment • Time: +12 hours; after LPS treatment • Time: +18 hours; after LPS treatment • Time: +24 hours; after LPS treatment • Time: +48 hours; after LPS treatment • Time: +72 hours; after LPS treatment
Blood samples were collected in sodium citrate tubes (100 μl sodium citrate 0.1 M/900 μl of blood) and centrifuged at 1000 g at 4° C. for 10 minutes. Plasma samples were collected and 50 μl/sample were frozen at −80° C. until testing for multiple cytokines profiling. The samples were analyzed in double through the Bio-Plex System (Bio-Rad) by using the 23-plex panel at the Dept. of Genetics, Biology and Biochemistry, Torino University, led by Prof. Silengo. Plasma levels of the following cytokines were determined: IL-1a, IL-1b, IL-2, IL-3, IL-4, IL-5, IL-6, IL-10, IL-12(p40), IL-12(p70), IL-17, G-CSF, GM-CSF, IFN-γ, KC, MIP-1-α, RANTES, TNF-α, IL-9, IL-13, eotaxin, MCP-1, MIP-1-α.

[6] = test system: protein kinase C (PKC); conditions: cited from earlier work
[7] = test system: transplanted psoriatic plaques; conditions: 2 weeks of therapy, double-blinded, placebo-controlled; cited from earlier work

With `COC(=O)[C@]1(O)C[C@@H]2O[C@@]1(C)n1c3ccccc3c3c4c(c5c6ccccc6n2c5c31)C(=O)NC4` [Compound K-252a, K-252a] the concentration at 30 min ([1]; sacrificed after 30 minutes) was 23.3 ng/mL, the concentration at 60 min ([1]; sacrificed after 60 minutes) was 42.1 ng/mL and the concentration at 3 h ([2]; male, Balb/c, mouse, plasma, topical, 1.03 mg/kg) was 110 nM. It also gave a concentration at 3 h ([2]; read-out: Mean Plasma Concentration) of 110.19 nM, an LD50 at 7 days ([3]; female mice, read-out: LD50) of 41.4 mg/kg and an LD50 at 7 days ([3]; male mice, read-out: LD50) of 37.7 mg/kg. For the same compound, the LD50 at 7 days ([3]; both sexes, males and females together, read-out: average LD50) was 39 mg/kg, the survival ([3]; female mice, 45 mg/kg, five per group) was “One female survived out of the five” and the survival ([3]; female mice, 60 mg/kg, five per group) was “one”. For the same compound, the survival ([3]; female mice, doses higher than 60 mg/kg) was “lethal to all female mice”, the survival ([3]; female mice, lowest dose (30 mg/Kg)) was “survived” and the survival ([3]; male mice, 30 mg/Kg) was “survived”. For the same compound, the survival ([3]; male mice, all doses above 30 mg/Kg, within the first 22 hours after dosing) was “found dead”, the sedation ([3]; males and females, lowest dose (30 mg/Kg), disappeared within 8-10 hours) was “very mild/mild sedation” and the LD50 at 7 days [4] was 78 mg/kg. For the same compound, the “IFN-γ secretion in plasma” value [5] was “significant reduction”, the “MCP-1 secretion in plasma” value [5] was “significant reduction” and the “MIP-α secretion in plasma” value [5] was “significant reduction”. The “RANTES secretion in plasma” value [5] was “significant reduction”, the “TNF-α secretion in plasma” value [5] was “significant reduction” and the “inhibition of protein kinase C” value [6] was “strongly inhibits”. The psoriasis improvement [7] was “significantly improved”.
